Where “and” joins values, the source holds several entries; their conditions need not be identical. Equal values may be shown once.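 1) Cells in 96-well plates. 2) Compound, 48 h, 5 concentrations. 3) Linear interpolation between surrounding doses. 4) Unreached endpoint = highest concentration. Here, GI50 denotes the concentration required for 50% inhibition of growth. TGI marks complete inhibition of growth.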
Key:
Test in all cases: DTP human tumour cell line panel, 48 h
SNB-75 CNS = tested on: SNB-75 CNS
RXF 393 renal = tested on: RXF 393 renal
CAKI-1 renal = tested on: CAKI-1 renal
K-562 leukemia = tested on: K-562 leukemia
NCI-H226 lung = tested on: NCI-H226 lung
SK-MEL-2 melanoma = tested on: SK-MEL-2 melanoma
CCRF-CEM leukemia = tested on: CCRF-CEM leukemia
UACC-257 melanoma = tested on: UACC-257 melanoma
UO-31 renal = tested on: UO-31 renal
LOX IMVI melanoma = tested on: LOX IMVI melanoma

OC(CC(c1ccccc1)c1ccc(Cl)cc1)c1ccc(Cl)cc1 (centres undefined)
TGI (SNB-75 CNS): 81.8 µM
TGI (RXF 393 renal): 65.8 µM
TGI (CAKI-1 renal): > 100 µM
TGI (K-562 leukemia): > 100 µM
TGI (NCI-H226 lung): 97.5 µM
TGI (SK-MEL-2 melanoma): 49.8 µM
TGI (CCRF-CEM leukemia): > 100 µM
TGI (UACC-257 melanoma): > 100 µM
TGI (UO-31 renal): > 100 µM
TGI (LOX IMVI melanoma): 77.2 µM

c1ccc2c(c1)CC1c3[nH]c4ccccc4c3CCN21 (centres undefined)
TGI (SNB-75 CNS): > 10 µM
TGI (RXF 393 renal): > 10 µM
TGI (CAKI-1 renal): > 10 µM
TGI (K-562 leukemia): > 10 µM
TGI (NCI-H226 lung): > 10 µM
TGI (SK-MEL-2 melanoma): > 10 µM
TGI (CCRF-CEM leukemia): > 10 µM
TGI (UACC-257 melanoma): > 10 µM
TGI (UO-31 renal): > 10 µM
TGI (LOX IMVI melanoma): > 10 µM

Cc1nc2c(n1Cc1ccc(Cl)cc1)C(=O)c1ccccc1C2=O
TGI (SNB-75 CNS): > 75 µM
TGI (RXF 393 renal): > 75 µM
TGI (K-562 leukemia): > 75 µM
TGI (NCI-H226 lung): > 75 µM
TGI (SK-MEL-2 melanoma): > 75 µM
TGI (CCRF-CEM leukemia): > 75 µM
TGI (UACC-257 melanoma): > 75 µM
TGI (UO-31 renal): > 75 µM
TGI (LOX IMVI melanoma): > 75 µM

COc1ccccc1C(=O)c1c(N2CCCCC2)c(=O)c1=O
TGI (SNB-75 CNS): > 100 µM
TGI (RXF 393 renal): > 100 µM
TGI (CAKI-1 renal): > 100 µM
TGI (K-562 leukemia): > 100 µM
TGI (NCI-H226 lung): > 100 µM
TGI (SK-MEL-2 melanoma): > 100 µM
TGI (CCRF-CEM leukemia): > 100 µM
TGI (UACC-257 melanoma): > 100 µM
TGI (UO-31 renal): > 100 µM
TGI (LOX IMVI melanoma): > 100 µM

CC(=O)O[C@]12CCCCCCC1C1(O)C(O)CCC[C@H]12 (some centres undefined)
TGI (SNB-75 CNS): > 100 µM
TGI (RXF 393 renal): > 100 µM
TGI (K-562 leukemia): > 100 µM
TGI (NCI-H226 lung): > 100 µM
TGI (SK-MEL-2 melanoma): > 100 µM
TGI (CCRF-CEM leukemia): > 100 µM
TGI (UACC-257 melanoma): > 100 µM
TGI (UO-31 renal): > 100 µM
TGI (LOX IMVI melanoma): > 100 µM

CC1=NNC(N)=N/C1=C/C(Sc1ccc(Cl)cc1)c1cccs1 (centres undefined)
TGI (RXF 393 renal): 34.7 µM
TGI (CAKI-1 renal): 53.9 µM
TGI (K-562 leukemia): 67.9 µM
TGI (NCI-H226 lung): 32.6 µM
TGI (SK-MEL-2 melanoma): 27.4 µM
TGI (CCRF-CEM leukemia): 9.79 µM
TGI (UACC-257 melanoma): 45.5 µM
TGI (UO-31 renal): 17.7 µM
TGI (LOX IMVI melanoma): > 100 µM

O=C1/C(=C/c2cccc(Oc3ccccc3)c2)N=C(c2ccccc2)N1c1nc2ccc(Sc3ccccc3)cc2[nH]1
TGI (SNB-75 CNS): 60.4 µM
TGI (RXF 393 renal): > 100 µM
TGI (CAKI-1 renal): > 100 µM
TGI (K-562 leukemia): > 100 µM
TGI (SK-MEL-2 melanoma): 38.4 µM
TGI (CCRF-CEM leukemia): > 100 µM
TGI (UACC-257 melanoma): 85.6 µM
TGI (UO-31 renal): > 100 µM
TGI (LOX IMVI melanoma): > 100 µM

O=S1(=O)NNC(=NCc2ccc(F)cc2)c2ccccc21
TGI (RXF 393 renal): > 69.3 µM
TGI (CAKI-1 renal): > 100 µM
TGI (K-562 leukemia): > 73.1 µM
TGI (NCI-H226 lung): > 100 µM
TGI (SK-MEL-2 melanoma): > 100 µM
TGI (CCRF-CEM leukemia): > 72.7 µM
TGI (UACC-257 melanoma): > 100 µM
TGI (UO-31 renal): > 100 µM
TGI (LOX IMVI melanoma): > 100 µM

CC(=O)N[C@@H](Cc1ccc(O)cn1)C(=O)NCc1ccc2c(c1)OCO2
TGI (RXF 393 renal): > 100 µM
TGI (CAKI-1 renal): > 100 µM
TGI (K-562 leukemia): > 100 µM
TGI (NCI-H226 lung): > 100 µM
TGI (SK-MEL-2 melanoma): > 100 µM
TGI (CCRF-CEM leukemia): > 100 µM
TGI (UACC-257 melanoma): > 100 µM
TGI (UO-31 renal): > 100 µM
TGI (LOX IMVI melanoma): > 100 µM

Cc1ncc([N+](=O)[O-])n1CCN=[N+]=[N-]
TGI (SNB-75 CNS): > 100 µM
TGI (RXF 393 renal): > 100 µM
TGI (CAKI-1 renal): > 100 µM
TGI (K-562 leukemia): > 100 µM
TGI (NCI-H226 lung): > 100 µM
TGI (SK-MEL-2 melanoma): > 100 µM
TGI (UACC-257 melanoma): > 100 µM
TGI (UO-31 renal): > 100 µM

Oc1ccc(-c2c3c(nc4c2CCc2ccc(Br)cc2-4)-c2cc(Br)ccc2CC3)cc1
TGI (SNB-75 CNS): 54.9 µM
TGI (CAKI-1 renal): 33 µM
TGI (NCI-H226 lung): 48 µM
TGI (SK-MEL-2 melanoma): 35 µM
TGI (UACC-257 melanoma): 69.4 µM
TGI (UO-31 renal): 38.4 µM

O=C1NC(=O)/C(=C\c2ccncc2)N1
TGI (SNB-75 CNS): > 100 µM
TGI (CAKI-1 renal): > 100 µM
TGI (NCI-H226 lung): > 100 µM
TGI (SK-MEL-2 melanoma): > 100 µM
TGI (UACC-257 melanoma): > 100 µM
TGI (UO-31 renal): > 100 µM
TGI (LOX IMVI melanoma): > 100 µM

COc1ccc(C2CC(c3c(C)nn(-c4ccccc4)c3-c3ccc(C)cc3O)=NN2c2ccccc2)cc1 (centres undefined)
TGI (SNB-75 CNS): > 100 µM
TGI (RXF 393 renal): > 100 µM
TGI (CAKI-1 renal): > 100 µM
TGI (K-562 leukemia): > 100 µM
TGI (NCI-H226 lung): > 100 µM
TGI (SK-MEL-2 melanoma): > 52.3 µM
TGI (CCRF-CEM leukemia): > 100 µM
TGI (UACC-257 melanoma): > 100 µM
TGI (UO-31 renal): > 100 µM
TGI (LOX IMVI melanoma): > 100 µM

Cc1cc(S(=O)(=O)Nc2n[nH]c(Nc3ccccc3)n2)c(S)cc1Cl
TGI (SNB-75 CNS): > 10 µM
TGI (RXF 393 renal): > 10 µM
TGI (CAKI-1 renal): > 10 µM
TGI (K-562 leukemia): > 10 µM
TGI (NCI-H226 lung): > 10 µM
TGI (SK-MEL-2 melanoma): > 10 µM
TGI (CCRF-CEM leukemia): > 10 µM
TGI (UACC-257 melanoma): > 10 µM
TGI (UO-31 renal): > 10 µM
TGI (LOX IMVI melanoma): > 10 µM

COc1cc(C2C(Cl)C(=O)N2c2ccc(Br)cc2)cc(I)c1O (centres undefined)
TGI (SNB-75 CNS): > 100 µM
TGI (CAKI-1 renal): > 100 µM
TGI (K-562 leukemia): > 100 µM
TGI (SK-MEL-2 melanoma): > 100 µM
TGI (CCRF-CEM leukemia): > 100 µM
TGI (UACC-257 melanoma): > 100 µM
TGI (UO-31 renal): > 100 µM
TGI (LOX IMVI melanoma): > 100 µM

O=C1c2cc([N+](=O)[O-])ccc2NC2C(O)c3ccccc3N12 (centres undefined)
TGI (SNB-75 CNS): 44.8 µM
TGI (RXF 393 renal): 34.5 µM
TGI (CAKI-1 renal): 54 µM
TGI (K-562 leukemia): 87.8 µM
TGI (NCI-H226 lung): 82.9 µM
TGI (SK-MEL-2 melanoma): > 100 µM
TGI (UACC-257 melanoma): 55.3 µM
TGI (UO-31 renal): > 100 µM
TGI (LOX IMVI melanoma): > 100 µM

c1ccc2c3c(ccc2c1)CSCc1ccc2ccccc2c1-3
TGI (SNB-75 CNS): > 100 µM
TGI (RXF 393 renal): > 100 µM
TGI (CAKI-1 renal): > 100 µM
TGI (K-562 leukemia): > 100 µM
TGI (SK-MEL-2 melanoma): > 100 µM
TGI (CCRF-CEM leukemia): > 100 µM
TGI (UACC-257 melanoma): > 100 µM
TGI (UO-31 renal): > 100 µM
TGI (LOX IMVI melanoma): > 100 µM

COc1cc2c3c(n(CCCNCCO)c(=O)c2cc1OC)-c1cc2c(cc1C3=O)OCO2
GI50 (RXF 393 renal): 0.139 µM and 0.268 µM
TGI (RXF 393 renal): 1.26 µM and 5.75 µM
GI50 (K-562 leukemia): 2.16 µM and 0.511 µM
TGI (K-562 leukemia): > 100 µM
GI50 (NCI-H226 lung): 0.0474 µM
TGI (NCI-H226 lung): 1.46 µM and 0.269 µM
GI50 (SK-MEL-2 melanoma): 2.55 µM and 10.9 µM
TGI (SK-MEL-2 melanoma): 5.84 µM and 23.7 µM
GI50 (UO-31 renal): 0.0183 µM and 0.181 µM
TGI (LOX IMVI melanoma): 0.169 µM

Cc1ccc2ccccc2c1CC1S(=O)(=O)OCCOS1(=O)=O
TGI (CAKI-1 renal): 24.4 µM
TGI (K-562 leukemia): 34 µM
TGI (SK-MEL-2 melanoma): 37.9 µM
TGI (CCRF-CEM leukemia): 27.1 µM
TGI (UACC-257 melanoma): 41.2 µM
TGI (UO-31 renal): 27.1 µM
TGI (LOX IMVI melanoma): 22.2 µM

CCCCCCCCCCCCC(=O)NCC(=O)NC(Cc1ccccc1)C(=O)Oc1ccc([N+](=O)[O-])cc1 (centres undefined)
TGI (SNB-75 CNS): > 100 µM
TGI (RXF 393 renal): > 100 µM
TGI (CAKI-1 renal): > 100 µM
TGI (NCI-H226 lung): > 100 µM
TGI (SK-MEL-2 melanoma): > 100 µM
TGI (CCRF-CEM leukemia): 68.7 µM
TGI (UACC-257 melanoma): > 100 µM
TGI (UO-31 renal): > 100 µM
TGI (LOX IMVI melanoma): > 100 µM

Brc1ccc(N2C[N+](c3ccc(Br)cc3)=NC(c3ccccc3)=N2)cc1
TGI (SNB-75 CNS): 48.4 µM and > 100 µM
TGI (RXF 393 renal): 37.7 µM and > 100 µM
TGI (CAKI-1 renal): 33.3 µM and > 100 µM
TGI (K-562 leukemia): 32.8 µM and > 100 µM
TGI (NCI-H226 lung): 44.4 µM and > 100 µM
TGI (SK-MEL-2 melanoma): 32.6 µM and > 100 µM
TGI (UACC-257 melanoma): 31.3 µM and > 100 µM
TGI (UO-31 renal): 27.6 µM and > 100 µM

CC(=O)Oc1ccc2cc(Oc3ccc(Cl)cc3)c(=O)oc2c1
TGI (SNB-75 CNS): > 100 µM
TGI (RXF 393 renal): > 100 µM
TGI (CAKI-1 renal): > 100 µM
TGI (NCI-H226 lung): > 100 µM
TGI (UACC-257 melanoma): 78.7 µM
TGI (UO-31 renal): > 100 µM
TGI (LOX IMVI melanoma): > 100 µM

COc1ccc(CNc2nc(NCc3ccc(OC)cc3)nc(NC3CCCCC3)n2)cc1
TGI (CAKI-1 renal): 4.86 µM
TGI (K-562 leukemia): > 100 µM
TGI (NCI-H226 lung): 5.71 µM
TGI (SK-MEL-2 melanoma): 7.86 µM
TGI (UACC-257 melanoma): > 100 µM
TGI (UO-31 renal): 96.6 µM
TGI (LOX IMVI melanoma): 20.2 µM

— PubChem BioAssay (NCI)
